Assay results published in paper PMC7724566, “Prospects for Clinical Development of Stat5 Inhibitor IST5-002: High Transcriptomic Specificity in Prostate Cancer and Low Toxicity In Vivo” (Cancers, 2020).

Assays:
[1] = system: Stat5; design: method as in PMID 31548294; conditions: patients treated with enzalutamide (median 6 months); cited from earlier work
[2] = molecular target: T1, Stat5 (Homo sapiens, UniProt P42229); experiment: Native-gel-based Stat5 dimerization assay, CWR22Rv1 cells; format: cell-based; conditions: 1 µM, 6 h, Prl (10 nM) stimulated CWR22Rv1 cells, STAT5A-eYFP
T1 construct: expressed in transfected cells; host or cells: CWR22Rv1
Text: Having established that IST5 and IST5-M both interrupt phosphorylation of Stat5, we next investigated the potency of IST5-M vs. IST5 in suppressing dimerization of Stat5 in PC cells. First, we performed a native Polyacrylamide Gel Electrophoresis (PAGE) based Stat5 dimerization assay established originally by Fahrenkamp et al., where CWR22Rv1 cells were transfected with STAT5A-eYFP (Stat5 wild type), STAT5A-N642H-eYFP (constitutive activated Stat5 by N642H mutation, as a positive control) or STAT3-eYFP (Stat3 wild type, as a negative control) constructs for 3 days (Figure 5A). CWR22Rv1 cells were starved for 16 h, pretreated with vanadate (1 mM) for 2 h, followed by treatment with vehicle, IST5 or IST5-M (1 µM) for 6 h and stimulation with Prl (10 nM) for 1 h.
Figure 5 Both IST5 and IST5-M suppress dimerization of Stat5 with similar efficacies in prostate cancer cells. (A), IST5 and IST5-M inhibit equally potently dimerization of Stat5 in native-gel-based Stat5 dimerization assay. […] Dimerization of Stat5 was analyzed by detection of the eYFP fluorescence of the native Coomassie gel. […] (E), differences in posttranslational modifications were detected between native and recombinant STAT5a using mass spectrometry. Native STAT5a from CWR22Rv1 cells and recombinant STAT5a from E. coli were gel-purified, digested using trypsin, and analyzed by bottom-up mass spectrometry. […]

[3] = system: Stat5; experiment: Stat5 phosphorylation in CWR22Rv1 cells (IP/immunoblot); format: cell-based, human; conditions: 4 days
Method: (§1) In order to evaluate whether the phosphate group of IST5 is critical for IST5 activity in cell-based assays, we compared the potency of IST5 (Figure 4A) to that of IST5-M (IST5 without the phosphate group) (Figure 4B) in inhibiting phosphorylation of Stat5 in PC and CML cells. CML (K562) cells and PC (CWR22Rv1) cells were cultured for 4 days with increasing concentrations of IST5 and IST5-M (Figure 4C,D). […] Collectively, these finding indicate that IST5 and IST5-M have similar efficacies in inhibiting phosphorylation of Stat5 in both CML and PC cells.
(§2) Figure 4 IST5 and the IST5-derivative lacking the phosphate group (IST5-M), both, inhibit Stat5 phosphorylation in CML and prostate cancer cell line with high efficacy. (A), chemical structure of IST5-002 (IST5). (B), chemical structure of IST5-M (IST5 without the phosphate group. (C), IST5 and IST5-M both inhibit Stat5 phosphorylation in CML cells (K562) with high efficacy. K562 cells were treated with IST5 and IST5-M for 4 days at the concentrations indicated. Whole cell lysates (WCL) were immunoblotted with anti-pYStat5 mAb, anti-Stat5 mAb and anti-actin mAb as loading control. (D), IST5 and IST5-M, both, decrease Stat5 phosphorylation in PC cells (CWR22Rv1). CWR22Rv1 cells were treated with increasing concentrations of IST5 and IST5-M for 4 days. Stat5 was immunoprecipitated (IP) followed by immunoblotting (WB) with anti-pYStat5 mAb and anti-Stat5 mAb. Whole cell lysates (WCL) were immunoblotted with anti-actin mAb as loading control.
(§3) Cell pellets were solubilized in the lysis buffer (10 mM Tris-HCl (pH 7.6), 5 mM EDTA, 50 mM sodium chloride, 30 mM sodium pyrophosphate, 50 mM sodium fluoride, 1 mM sodium orthovanadate, 1% Triton X-100, 1 mM phenylmethylsulfonyl fluoride, 5 µg/mL aprotinin, 1 µg/mL pepstatin A and 2 µg/mL leupeptin), and protein concentrations of clarified cell lysates were determined by a simplified Bradford method (Bio-Rad, Hercules, CA, USA). The whole cell lysates were immunoprecipitated with polyclonal antibodies (Table S1) followed by incubation with protein A-Sepharose beads (GE Healthcare, Chicago, IL, USA). The cell lysates and immunoprecipitated proteins were separated on 4–12% SDS-PAGE (Life Technologies, Brown Deer, WI, USA) and transferred electrophoretically to polyvinylidene fluoride membrane (Millipore). For immunoblotting, blocking buffer was tris-buffered saline and tween 20 (TBST, 0.15 M NaCl; 0.1% Tween 20; 50 mM Tris, pH 8.0) with 3% bovine serum albumin (BSA). The immunoreaction with the specific antibodies (Table S1) was detected by horseradish peroxidase-conjugated secondary antibodies followed by enhanced chemiluminescence (GE Healthcare).

[4] = system: Stat5; experiment: Stat5 phosphorylation in K562 cells (immunoblot); format: cell-based, human; conditions: 4 days
Method: as §1, §2, §3

T1 sequence (P42229 whole entry, species assumed): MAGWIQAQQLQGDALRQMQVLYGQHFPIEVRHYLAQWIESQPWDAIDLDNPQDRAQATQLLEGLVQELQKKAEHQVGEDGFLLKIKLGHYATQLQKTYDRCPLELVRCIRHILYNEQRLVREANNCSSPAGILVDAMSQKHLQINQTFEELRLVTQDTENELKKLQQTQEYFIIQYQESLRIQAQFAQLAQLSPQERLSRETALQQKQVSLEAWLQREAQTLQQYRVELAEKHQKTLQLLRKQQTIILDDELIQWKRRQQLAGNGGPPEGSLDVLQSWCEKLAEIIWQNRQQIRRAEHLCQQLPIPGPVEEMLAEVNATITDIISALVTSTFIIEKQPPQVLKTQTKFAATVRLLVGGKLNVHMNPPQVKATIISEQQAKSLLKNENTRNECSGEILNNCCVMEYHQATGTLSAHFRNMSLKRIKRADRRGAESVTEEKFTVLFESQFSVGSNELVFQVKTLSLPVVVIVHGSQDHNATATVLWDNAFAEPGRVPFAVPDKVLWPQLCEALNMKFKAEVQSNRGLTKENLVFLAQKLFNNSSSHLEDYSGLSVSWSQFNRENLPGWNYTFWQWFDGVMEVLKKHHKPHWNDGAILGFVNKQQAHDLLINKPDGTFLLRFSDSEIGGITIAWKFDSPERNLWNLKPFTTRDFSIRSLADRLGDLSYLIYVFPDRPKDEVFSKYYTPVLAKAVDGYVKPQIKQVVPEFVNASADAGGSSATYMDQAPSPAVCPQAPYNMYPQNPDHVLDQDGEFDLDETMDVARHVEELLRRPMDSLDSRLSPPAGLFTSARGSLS

CNC(=O)c1ccc(N2C(=S)N(c3ccc(C#N)c(C(F)(F)F)c3)C(=O)C2(C)C)cc1F [enzalutamide]
PC biopsies with significantly elevated levels of Stat5 activation [1]: 10/10

OCC1OC(n2cnc3c(NCc4ccccc4)ncnc32)C(O)C1O (stereo not drawn) [IST5-M]
inhibition of Stat5 dimerization [2]: inhibited robustly
inhibition of Stat5 phosphorylation ([3]; 2 µM, CWR22Rv1 cells): 60–75%
IC50 ([3]; read-out: IC50, inhibition of Stat5 phosphorylation, CWR22Rv1 PC cells): ~1.3 µM
inhibition of Stat5 phosphorylation ([4]; 2 µM, K562 cells): 75–90%
IC50 ([4]; read-out: IC50, inhibition of Stat5 phosphorylation, K562 CML cells): ~1.1 µM
